Data published in patent publication US7034056B2, “Aryl and biaryl compounds having MCH modulatory activity” (Pharmacopeia Drug Discovery, inc., priority 2001, dated 2006).
pKi: −log10 of the molar value.
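For Activity (Ki range) in this document: A 0.4–50 nM B 51–500 nM C 501–2500 nM.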

These compounds were tested against T1, hMCHR (MCH receptor) (Homo sapiens, UniProt Q99705) (assay: MCH Assay PCOP Protocol ([125I]-MCH SPA binding to hMCHR-CHO membranes)). Details: [125I]-MCH 0.5 nM, hMCHR-CHO membranes; read-out: Activity (ranges of Ki values).
T1 construct: (or internally produced); host or cells: CHO (Chinese hamster ovary) cells, membrane preparation
T1 sequence (Q99705 whole entry): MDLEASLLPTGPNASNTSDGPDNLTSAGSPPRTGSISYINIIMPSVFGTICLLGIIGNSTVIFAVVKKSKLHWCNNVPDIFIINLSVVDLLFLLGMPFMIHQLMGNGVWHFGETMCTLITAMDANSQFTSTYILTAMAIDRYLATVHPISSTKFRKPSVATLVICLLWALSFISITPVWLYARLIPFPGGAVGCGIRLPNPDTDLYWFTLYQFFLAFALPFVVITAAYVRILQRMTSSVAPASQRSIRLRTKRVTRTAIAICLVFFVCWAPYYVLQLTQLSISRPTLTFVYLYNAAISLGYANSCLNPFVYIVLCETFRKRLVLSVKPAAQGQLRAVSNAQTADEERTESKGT
Outline: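 SPA binding with 10 μg hMCHR-CHO membranes and WGA-SPA beads in 25 mM HEPES pH 7.4, 10 mM NaCl, 10 mM MgCl2, 5 mM MnCl2, 0.1% BSA.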
`CN(C)CCC(CNC(=O)c1ccc(F)c(F)c1)c1ccc(-c2cccc(C#N)c2)cc1` (stereo not shown) [Example 67] gave a pKi of 6.30 to 7.29. `O=C(NCC(CCNCCc1ccc(O)cc1)c1ccc(Cl)c(Cl)c1)Nc1ccc(F)c(F)c1` (stereo not shown) [Example 140] gave a pKi of 5.60 to 6.30. With `CN(C)CCCNCCC(C)(CNC(=O)Nc1cc(Cl)cc(Cl)c1)c1ccc(Cl)c(Cl)c1` (stereo not shown) [Example 111] the pKi was 6.30 to 7.29. Compound `N#Cc1cccc(-c2ccc(C(CCNC3CC3)CNC(=O)Nc3cccc(Cl)c3)cc2)c1` (stereo not shown) [Example 43] has a pKi of 7.30 to 9.40. `N#Cc1cccc(-c2ccc(C(CCNC3CCCC3)CNC(=O)c3cc(Cl)cc(Cl)c3)cc2)c1` (stereo not shown) [Example 82] showed a pKi of 6.30 to 7.29. `O=C(NCC(CCNC1CCCC1)c1cccc(-c2ccc(F)cc2)c1)Nc1cc(Cl)cc(Cl)c1` (stereo not shown) [Example 155] gave a pKi of 6.30 to 7.29. `CN(C)CCCNCCC(CNC(=O)Nc1cc(Cl)cc(Cl)c1)c1cccc(-c2ccc(F)c(Cl)c2)c1` (stereo not shown) [Example 170] showed a pKi of 5.60 to 6.30. `CCOC(=O)N1CCC(NCCC(CNC(=O)Nc2cc(Cl)cc(Cl)c2)c2ccc(Cl)cc2)CC1` (stereo not shown) [Example 122] showed a pKi of 6.30 to 7.29.

Same assay, conditions: [125I]-MCH SPA binding, hMCHR-CHO membranes; Ki class ranges; read-out: Activity (range of Ki)
In the case of `O=C(Cc1ccc(Cl)c(Cl)c1)NCC(CCN1CCC(N2CCCCC2)CC1)c1ccc(Cl)c(Cl)c1` (stereo not shown) [Example 448], the pKi was 5.60 to 6.30.

Same assay, conditions: [125I]-MCH binding to hMCHR-CHO membranes; class symbols for ranges of Ki; read-out: Activity (Ki range)
In the case of `O=C(NCc1cc(C(F)(F)F)cc(C(F)(F)F)c1)C(CCNCCN1CCCC1)c1ccc(Cl)c(Cl)c1` (stereo not shown) [Example 380], the pKi was 5.60 to 6.30. Compound `Cc1ccc(C(CCN2CCCCC2)CNC(=O)Nc2cc(C)cc(C)c2)cc1` (stereo not shown) [Example 355] has a pKi of 5.60 to 6.30. For `O=C(NCC(CCNC1CCNC1)c1ccc(Cl)c(Cl)c1)Nc1cc(C(F)(F)F)cc(C(F)(F)F)c1` (stereo not shown) [Example 318], the pKi was 5.60 to 6.30. `Cc1ccc(C(CCN2CCCCC2)CNC(=O)Nc2cc(Cl)ccc2Cl)cc1` (stereo not shown) [Example 353] was tested, and the pKi was 6.30 to 7.29.
